Converted amounts (≈) assume the structure as drawn. Where two headings read alike, the source gives them in different places.
Tests used:
[1] = tested on: poliovirus (PV type 2); test: microbe, parasite or virus in culture; assay type: cell-based; conditions: Enterovirus C, read-out: PV-2 EC50
[2] = tested on: poliovirus (PV type 1); test: microbe, parasite or virus in culture; assay type: cell-based; conditions: Enterovirus C, read-out: PV-1 EC50
[3] = in vitro; conditions: African green monkey, PV CC50
[4] = tested on: poliovirus (PV type 3); test: microbe, parasite or virus in culture; assay type: cell-based; conditions: Enterovirus C, read-out: PV-3 EC50
[5] = tested on: HIV-2 strain (ROD); test: Inhibition of replication of HIV-2 (ROD strain) in MT-4 cells, MTT assay; assay type: cell-based; conditions: Human immunodeficiency virus 2, MT4, 120 h, read-out: EC50 (μM) HIV-2 (ROD)
[6] = in vitro; conditions: human, PV CC50
[7] = in vitro; conditions: human
[8] = tested on: HIV-1 strain IIIB; test: Inhibition of replication of HIV-1 (IIIB strain) in MT-4 cells, MTT assay; assay type: cell-based; conditions: Human immunodeficiency virus 1, IIIB, MT4, 120 h, read-out: EC50 (μM) HIV-1 (IIIB)
[9] = MT-4 cells, MTT assay, five days after infection, 50% protection from cytopathic effect

SMILES | EC50 ([1]; HeLa) | EC50 ([1]; Vero) | EC50 ([2]; HeLa) | EC50 ([2]; Vero) | CC50 [3] | EC50 ([4]; HeLa) | EC50 ([4]; Vero) | EC50 [5, 9] | CC50 [6] | CC50 [7] | EC50 [8, 9] | EC50 [5] | EC50 [8]
Cc1nc(N2CCN(C(=O)COc3ccc(Cl)cc3)CC2)c2nc(-c3ccc(F)cc3)sc2n1 [Example 47, 2-(4-chlorophenoxy)-1-(4-(2-(4-fluorophenyl)-5-methylthiazolo[5,4-d]pyrimidin-7-yl)piperazin-1-yl)ethanone] | ≥ 50 µg/mL | 0.35 µg/mL (≈ 0.703 µM) | > 50 µg/mL | 0.64 µg/mL (≈ 1.29 µM) | > 150 µg/mL | > 50 µg/mL | > 50 µg/mL | > 50 µM | > 50 µg/mL | > 50 µM | > 50 µM |  | 
Nc1nc(N2CCN(C(=O)COc3ccc(Cl)cc3)CC2)c2cc(-c3ccc(F)cc3)sc2n1 [Example 326, 1-(4-(2-amino-6-(4-fluorophenyl)thieno[2,3-d]pyrimidin-4-yl)piperazin-1-yl)-2-(4-chlorophenoxy)ethanone] | 0.051 µg/mL (≈ 0.102 µM) | 0.023 µg/mL (≈ 0.0462 µM) | 0.13 µg/mL (≈ 0.261 µM) | 0.037 µg/mL (≈ 0.0743 µM) | 102 µg/mL (≈ 205 µM) | 0.13 µg/mL (≈ 0.261 µM) | 0.17 µg/mL (≈ 0.341 µM) | 4.84 µM | 35.2 µg/mL (≈ 70.7 µM) | 27.7 µM | > 27.7 µM |  | 
Cc1nc(N2CCN(C(=O)COc3ccc(Cl)cc3)CC2)c2nc(-c3ccc(F)cc3)oc2n1 [Example 168, 2-(4-chlorophenoxy)-1-(4-(2-(4-fluorophenyl)-5-methyl-oxazolo[5,4-d]pyrimidin-7-yl)piperazin-1-yl)ethanone] | ≥ 50 µg/mL | ≥ 50 µg/mL | > 50 µg/mL | > 50 µg/mL | 83.3 µg/mL (≈ 173 µM) | > 50 µg/mL | > 50 µg/mL | > 50 µM | > 50 µg/mL | > 50 µM | > 50 µM |  | 
CC(c1ccc(F)cc1)c1nc2c(N3CCN(C(=O)COc4ccc(Cl)cc4)CC3)nc(N)nc2s1 (centres unmarked) [Example 66, 1-(4-(5-amino-2-(1-(4-fluorophenyl)ethyl)thiazolo[5,4-d]pyrimidin-7-yl)piperazin-1-yl)-2-(4-chlorophenoxy)ethanone] | ≥ 50 µg/mL | 0.11 µg/mL (≈ 0.209 µM) | > 50 µg/mL | 0.29 µg/mL (≈ 0.55 µM) | 130 µg/mL (≈ 246 µM) | > 50 µg/mL | 0.56 µg/mL (≈ 1.06 µM) | > 50 µM | > 50 µg/mL | > 50 µM | > 50 µM |  | 
O=C(COc1ccc(Cl)cc1)N1CCN(c2ncnc3oc(Cc4ccc(F)cc4)nc23)CC1 [Example 170, 2-(4-chlorophenoxy)-1-(4-(2-(4-fluorobenzyl)oxazolo[5,4-d]pyrimidin-7-yl)piperazin-1-yl)ethanone] | ≥ 50 µg/mL | 1.76 µg/mL (≈ 3.65 µM) | > 50 µg/mL | > 50 µg/mL | 105 µg/mL (≈ 218 µM) | > 50 µg/mL | > 50 µg/mL | > 50 µM | > 50 µg/mL | > 50 µM | 4.03 µM |  | 
Nc1nc(N2CCN(C(=O)COc3ccc(Cl)cc3Cl)CC2)c2nc(CCc3ccc(F)cc3)sc2n1 [Example 54, 1-(4-(5-amino-2-(4-fluorophenethyl)thiazolo[5,4-d]pyrimidin-7-yl)piperazin-1-yl)-2-(2,4-dichlorophenoxy)ethanone] | ≥ 50 µg/mL | ≥ 50 µg/mL | > 50 µg/mL | > 50 µg/mL | 138 µg/mL (≈ 245 µM) | ≥ 50 µg/mL | > 50 µg/mL | > 157 µM | > 50 µg/mL | 157 µM | > 157 µM |  | 
CCOC(=O)c1nc(N2CCN(C(=O)COc3ccc(Cl)cc3)CC2)c2cc(-c3ccc(F)cc3)sc2n1 [Example 353, ethyl 4-(4-(2-(4-chlorophenoxy)acetyl)piperazin-1-yl)-6-(4-fluorophenyl)thieno[2,3-d]pyrimidine-2-carboxylate] | ≥ 50 µg/mL | ≥ 50 µg/mL | > 50 µg/mL | > 50 µg/mL | > 150 µg/mL | > 50 µg/mL | > 50 µg/mL | > 68.5 µM | 41.3 µg/mL (≈ 74.4 µM) | 68.5 µM | > 68.5 µM |  | 
CCOC(=O)Cc1nc(N2CCN(C(=O)COc3ccc(Cl)cc3)CC2)c2cc(-c3ccc(F)cc3)sc2n1 [Example 354, ethyl 2-(4-(4-(2-(4-chlorophenoxy)acetyl)piperazin-1-yl)-6-(4-fluorophenyl)thieno[2,3-d]pyrimidin-2-yl)acetate] | ≥ 50 µg/mL | > 50 µg/mL | > 50 µg/mL | > 50 µg/mL | 129 µg/mL (≈ 227 µM) | > 50 µg/mL | > 50 µg/mL | > 159 µM | > 50 µg/mL | 159 µM | > 159 µM |  | 
Cc1cccc(NC(=O)N2CCN(c3nc(C(N)=O)nc4sc(-c5ccc(F)cc5)cc34)CC2)c1 [Example 362, 6-(4-fluorophenyl)-4-(4-(m-tolylcarbamoyl)piperazin-1-yl)thieno[2,3-d]pyrimidine-2-carboxamide] | ≥ 50 µg/mL | > 50 µg/mL | > 50 µg/mL | > 50 µg/mL | 128 µg/mL (≈ 261 µM) | > 50 µg/mL | > 50 µg/mL |  | > 50 µg/mL | 255 µM |  | ≥ 255 µM | ≥ 255 µM
Nc1nc(N2CCN(C(=O)COc3ccc(Cl)cc3)CC2)c2nc(Cc3ccc(F)cc3)sc2n1 [Example 46, 1-(4-(5-amino-2-(4-fluorobenzyl)thiazolo[5,4-d]pyrimidin-7-yl)piperazin-1-yl)-2-(4-chlorophenoxy)ethanone] | 0.039 µg/mL (≈ 0.076 µM) | 0.14 µg/mL (≈ 0.273 µM) | 0.11 µg/mL (≈ 0.214 µM) | 0.12 µg/mL (≈ 0.234 µM) | 133 µg/mL (≈ 259 µM) | 0.11 µg/mL (≈ 0.214 µM) | > 50 µg/mL | 1.15 µM | > 50 µg/mL | 164 µM | 0.67 µM |  | 
Nc1nc(N2CCN(C(=O)COc3ccc(F)cc3)CC2)c2nc(CCc3ccc(F)cc3)sc2n1 [Example 51, 1-(4-(5-amino-2-(4-fluorophenethyl)thiazolo[5,4-d]pyrimidin-7-yl)piperazin-1-yl)-2-(4-fluorophenoxy)ethanone] | 0.23 µg/mL (≈ 0.45 µM) | 0.13 µg/mL (≈ 0.255 µM) | 0.13 µg/mL (≈ 0.255 µM) | 0.12 µg/mL (≈ 0.235 µM) | 50 µg/mL (≈ 97.9 µM) | 20.2 µg/mL (≈ 39.5 µM) | 2.68 µg/mL (≈ 5.25 µM) | > 210 µM | > 50 µg/mL | 210 µM | 4.9 µM |  | 
NC(=O)c1nc(N2CCN(C(=O)COc3ccc(Cl)cc3)CC2)c2cc(-c3ccc(F)cc3)sc2n1 [Example 355, 4-(4-(2-(4-chlorophenoxy)acetyl)piperazin-1-yl)-6-(4-fluorophenyl)thieno[2,3-d]pyrimidine-2-carboxamide] | ≥ 50 µg/mL | ≥ 50 µg/mL | > 50 µg/mL | > 50 µg/mL | 117 µg/mL (≈ 222 µM) | > 50 µg/mL | > 50 µg/mL | > 150 µM | > 50 µg/mL | 150 µM | > 150 µM |  | 
Cc1cccc(NC(=O)N2CCN(c3nc(-c4ccccc4)nc4sc(-c5ccc(F)cc5)cc34)CC2)c1 [Example 360, 4-(6-(4-fluorophenyl)-2-phenylthieno[2,3-d]pyrimidin-4-yl)-N-m-tolylpiperazine-1-carboxamide] | ≥ 50 µg/mL | 10.5 µg/mL (≈ 20.1 µM) | > 50 µg/mL | > 50 µg/mL | 93.4 µg/mL (≈ 178 µM) | > 50 µg/mL | > 50 µg/mL | > 239 µM | > 50 µg/mL | > 239 µM | > 239 µM |  | 
Nc1nc(N2CCN(C(=O)COc3ccc(Cl)cc3)CC2)c2nc(C(Cc3ccccc3)c3ccc(F)cc3)sc2n1 (centres unmarked) [Example 67, 1-(4-(5-amino-2-(1-(4-fluorophenyl)-2-phenylethyl)thiazolo[5,4-d]pyrimidin-7-yl)piperazin-1-yl)-2-(4-chlorophenoxy)ethanone] | ≥ 50 µg/mL | 11.9 µg/mL (≈ 19.7 µM) | > 50 µg/mL | > 50 µg/mL | 114 µg/mL (≈ 189 µM) | > 50 µg/mL | > 50 µg/mL | > 50 µM | > 50 µg/mL | > 50 µM | > 50 µM |  | 
NC(=O)Cc1nc(N2CCN(C(=O)COc3ccc(Cl)cc3)CC2)c2cc(-c3ccc(F)cc3)sc2n1 [Example 358, 2-(4-(4-(2-(4-chlorophenoxy)acetyl)piperazin-1-yl)-6-(4-fluorophenyl)thieno[2,3-d]pyrimidin-2-yl)acetamide] | ≥ 50 µg/mL | > 50 µg/mL | > 50 µg/mL | > 50 µg/mL | > 150 µg/mL | > 50 µg/mL | > 50 µg/mL | > 19.1 µM | > 50 µg/mL | > 19.1 µM | > 19.1 µM |  | 
Nc1nc(N2CCN(C(=O)CCOc3ccc(F)cc3)CC2)c2nc(CCc3ccc(F)cc3)sc2n1 [Example 55, 1-(4-(5-amino-2-(4-fluorophenethyl)thiazolo[5,4-d]pyrimidin-7-yl)piperazin-1-yl)-3-(4-fluorophenoxy)propan-1-one] | ≥ 50 µg/mL | ≥ 50 µg/mL | > 50 µg/mL | > 50 µg/mL | 94.9 µg/mL (≈ 181 µM) | > 50 µg/mL | > 50 µg/mL | > 57.1 µM | > 50 µg/mL | 57.1 µM | > 57.1 µM |  | 
